In brackets after ≈: the same amount, converted by molar mass.
Experiments:
[1] = tested on: Enterococcus faecium; assay: Minimum inhibitory concentration against vancomycin-sensitive Enterococcus faecium in the presence of 30% bovine serum(n=1); type: functional
[2] = tested on: Enterococcus faecalis; assay: Minimum inhibitory concentration against vancomycin-A Enterococcus faecalis in the presence of 30% bovine serum (n=4); type: functional
[3] = tested on: Staphylococcus epidermidis; assay: Minimum inhibitory concentration against methicillin-resistant Staphylococcus epidermidis in the presence of 30% bovine serum; type: functional
[4] = tested on: Staphylococcus epidermidis; assay: Minimum inhibitory concentration against methicillin-sensitive Staphylococcus epidermidis in the presence of 30% bovine serum; type: functional
[5] = tested on: Enterococcus faecium; assay: Minimum inhibitory concentration against vancomycin-A Enterococcus faecium in the presence of 30% bovine serum (n=1) (128>128mg/L); type: functional
[6] = tested on: Staphylococcus aureus; assay: Minimum inhibitory concentration against methicillin-resistant Staphylococcus aureus
[7] = tested on: Staphylococcus haemolyticus; assay: Minimum inhibitory concentration against Staphylococcus haemolyticus in the presence of 30% bovine serum; type: functional
[8] = tested on: Staphylococcus aureus; assay: Minimum inhibitory concentration against methicillin-sensitive Staphylococcus aureus
[9] = tested on: Enterococcus faecalis; assay: Minimum inhibitory concentration against vancomycin-sensitive Enterococcus faecalis in the presence of 30% bovine serum(n=3)(range = >=0.125-0.25mg/l); type: functional
[10] = tested on: Enterococcus faecalis; assay: Minimum inhibitory concentration against vancomycin-sensitive Enterococcus faecalis in the presence of 30% bovine serum(n=3)(range =0.125-0.25 mg/l); type: functional
[11] = tested on: Enterococcus faecium; assay: Minimum inhibitory concentration against vancomycin-A Enterococcus faecium in the presence of 30% bovine serum (n=1) (range = 2-64mg/L); type: functional
[12] = tested on: Enterococcus faecalis; assay: Minimum inhibitory concentration against vancomycin-sensitive Enterococcus faecalis in the presence of 30% bovine serum (n=3); type: functional
[13] = tested on: Enterococcus faecalis; assay: Minimum inhibitory concentration against vancomycin-A Enterococcus faecalis (n=4) (range = 0.25-8mg/L)
[14] = tested on: Enterococcus faecium; assay: Minimum inhibitory concentration against vancomycin-A Enterococcus faecium in the presence of 30% bovine serum (n=1) (range = 0.125-16mg/l); type: functional
[15] = tested on: Enterococcus faecalis; assay: Minimum inhibitory concentration against vancomycin-sensitive Enterococcus faecalis in the presence of 30% bovine serum(n=3)(range = 0.125-0.25mg/l); type: functional
[16] = tested on: Enterococcus faecalis; assay: Minimum inhibitory concentration against vancomycin-A Enterococcus faecalis in the presence of 30% bovine serum (n=4) (range = 8-64mg/L); type: functional
[17] = tested on: Enterococcus faecium; assay: Minimum inhibitory concentration against vancomycin-A Enterococcus faecium in the presence of 30% bovine serum (n=1) (range = 32>128mg/L); type: functional
[18] = tested on: Enterococcus faecalis; assay: Minimum inhibitory concentration against vancomycin-sensitive Enterococcus faecalis in the presence of 30% bovine serum(n=3)(range = 0.125-0.5mg/l); type: functional
[19] = tested on: Enterococcus faecium; assay: Minimum inhibitory concentration against vancomycin-sensitive Enterococcus faecium in the presence of 30% bovine serum(n=1) (range = 1-8 mg/l); type: functional
[20] = tested on: Enterococcus faecalis; assay: Minimum inhibitory concentration against vancomycin-A Enterococcus faecalis (n=4) (Range = 1 - 8 mg/L)
[21] = tested on: Enterococcus faecium; assay: Minimum inhibitory concentration against vancomycin-A Enterococcus faecium in the presence of 30% bovine serum (n=1) (range = 2>128); type: functional
[22] = tested on: Staphylococcus aureus; assay: Minimum inhibitory concentration against methicillin-sensitive Staphylococcus aureus without serum

SMILES | MIC [1] [mg/L] | MIC [3] [mg/L] | MIC [4] [mg/L] | MIC [6] [mg/L] | MIC [7] [mg/L] | MIC [8] [mg/L] | other results
CCCCCCC(CCCC)CNC1[C@H](Oc2c3cc4cc2Oc2ccc(cc2Cl)[C@@H](O)C2NC(=O)[C@H](NC(=O)[C@@H]4NC(=O)[C@H]4NC(=O)[C@@H](Cc5ccc(cc5)O3)NC(=O)[C@H](NC)c3ccc(O)c(c3)Oc3cc(O)c(Cl)c4c3)c3ccc(O)c(c3)-c3c(O[C@H]4O[C@H](CO)[C@@H](O)[C@H](O)[C@@H]4O)cc(O)cc3[C@@H](C(=O)O)NC2=O)OC(C(=O)O)C(O)[C@@H]1O (some centres not stated) | 1 | 32 | 2 | 2 (≈ 1.16 µM) | 32 | 4 (≈ 2.33 µM) | MIC [2]: > 128 mg/L; MIC [5]: > 128 mg/L; MIC [9]: ≤ 0.125 mg/L
CCCCCCCCCCc1ccc(CNC2[C@H](Oc3c4cc5cc3Oc3ccc(cc3Cl)[C@@H](O)C3NC(=O)[C@H](NC(=O)[C@@H]5NC(=O)[C@H]5NC(=O)[C@@H](Cc6ccc(cc6)O4)NC(=O)[C@H](NC)c4ccc(O)c(c4)Oc4cc(O)c(Cl)c5c4)c4ccc(O)c(c4)-c4c(O[C@H]5O[C@H](CO)[C@@H](O)[C@H](O)[C@@H]5O)cc(O)cc4[C@@H](C(=O)O)NC3=O)OC(C(=O)O)C(O)[C@@H]2O)cc1 (some centres not stated) | 0.5 |  | 32 | 2 (≈ 1.12 µM) | 32 | 4 (≈ 2.25 µM) | MIC [10]: 0.125 mg/L; MIC [11]: > 64 mg/L
CCCCOc1ccc(CNC2[C@H](Oc3c4cc5cc3Oc3ccc(cc3Cl)[C@@H](O)C3NC(=O)[C@H](NC(=O)[C@@H]5NC(=O)[C@H]5NC(=O)[C@@H](Cc6ccc(cc6)O4)NC(=O)[C@H](N(C)Cc4ccc(OCCCC)cc4)c4ccc(O)c(c4)Oc4cc(O)c(Cl)c5c4)c4ccc(O)c(c4)-c4c(O[C@H]5O[C@H](CO)[C@@H](O)[C@H](O)[C@@H]5O)cc(O)cc4[C@@H](C(=O)NCCCN(C)C)NC3=O)OC(C(=O)NCCCN(C)C)C(O)[C@@H]2O)cc1 (some centres not stated) | 0.125 | 0.5 | < 0.125 | 1 (≈ 0.489 µM) | 1 | 0.25 (≈ 0.122 µM) | MIC [12]: < 0.125 mg/L; MIC [13]: 8 mg/L (≈ 3.92 µM); MIC [14]: > 16 mg/L
CCCCCCCCOc1ccc(CNC2[C@H](Oc3c4cc5cc3Oc3ccc(cc3Cl)[C@@H](O)C3NC(=O)[C@H](NC(=O)[C@@H]5NC(=O)[C@H]5NC(=O)[C@@H](Cc6ccc(cc6)O4)NC(=O)[C@H](NC)c4ccc(O)c(c4)Oc4cc(O)c(Cl)c5c4)c4ccc(O)c(c4)-c4c(O[C@H]5O[C@H](CO)[C@@H](O)[C@H](O)[C@@H]5O)cc(O)cc4[C@@H](C(=O)O)NC3=O)OC(C(=O)O)C(O)[C@@H]2O)cc1 (some centres not stated) | 0.5 |  | 16 | 1 (≈ 0.565 µM) | 16 | 2 (≈ 1.13 µM) | MIC [15]: 0.125 mg/L; MIC [16]: 64 mg/L; MIC [17]: > 128 mg/L
CCCCOc1ccc(CNC2[C@H](Oc3c4cc5cc3Oc3ccc(cc3Cl)[C@@H](O)C3NC(=O)[C@H](NC(=O)[C@@H]5NC(=O)[C@H]5NC(=O)[C@@H](Cc6ccc(cc6)O4)NC(=O)[C@H](N(C)Cc4ccc(OCCCC)cc4)c4ccc(O)c(c4)Oc4cc(O)c(Cl)c5c4)c4ccc(O)c(c4)-c4c(O[C@H]5O[C@H](CO)[C@@H](O)[C@H](O)[C@@H]5O)cc(O)cc4[C@@H](C(=O)O)NC3=O)OC(C(=O)O)C(O)[C@@H]2O)cc1 (some centres not stated) |  | 8 | 2 | 1 (≈ 0.533 µM) | 32 |  | MIC [18]: 0.5 mg/L; MIC [19]: 2 mg/L; MIC [20]: 8 mg/L (≈ 4.27 µM); MIC [21]: > 128 mg/L; MIC [22]: 2 mg/L (≈ 1.07 µM)

Reference: ChEMBL document CHEMBL1142788, “Synthesis and antibacterial activity of alkyl derivatives of the glycopeptide antibiotic A40926 and their amides” (2005)
